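Protocol summary: plate cells (96-well), add compound at 5 concentrations, incubate 48 h, interpolate endpoints linearly. GI50 marks 50% less growth. TGI marks complete inhibition of growth.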

Holding throughout (test): NCI anticancer screen, dose series, 48 h
Assay [1] has as its system OVCAR-4 ovarian.
Assay [2] has as its system CAKI-1 renal.
Assay [3] relates to HCT-15 colon.
In assay [4] the test system is RXF 393 renal.
Assay [5] has as its system SR leukemia.
The test system of assay [6] is OVCAR-8 ovarian.
For assay [7], the system named is MCF7 breast.
Assay [8] concerns A498 renal.
Assay [9] has as its system PC-3 prostate.
Assay [10] deals with MDA-MB-435.

`OCC1OC2c3ccccc3COC2C1OCc1ccccc1` (stereo not drawn): the TGI in assay [1], in [2], in assay [3], in assay [4], in assay [5] and in assay [6] was more than 100 µM throughout.
Regarding `CC1CCC2C(C)C(=O)OC3OC4(C)CCC1C32OO4` (stereo not drawn), the TGI in assay [1], in [2], in assay [3], in assay [4], in assay [5] and in assay [7] was more than 100 µM in each case. The TGI in [8], in assay [6] and in assay [9] was more than 100 µM in each case. In addition, the GI50 in [5], in [7], in assay [8] and in [6] was more than 100 µM in each case.
As to `Fc1cc(F)c(F)c(S)c1F`, the TGI was more than 100 µM in [1]; more than 100 µM in assay [2]; more than 100 µM in [3]; 54.8 µM in [4]; more than 100 µM in assay [7]; 33.2 µM in [8]. Also, the TGI in [10] is more than 100 µM; in assay [6], more than 100 µM; in assay [9], 42.2 µM.
Take `CCc1ccccc1NC(=O)C(C#N)C1=C(Cl)C(=O)c2ccccc2C1=O` (stereo not drawn): the TGI in assay [1] was 27.6 µM; in [2] it was 45.6 µM; in assay [3], 28.7 µM; in assay [4], 43.1 µM; in [5], more than 100 µM; in assay [7] it was 57 µM. Also, the TGI in assay [10] was found to be 63 µM; in assay [6] it was 37 µM; in assay [9], 33 µM.
Consider `COC(=O)c1cc(NC(=O)c2cc(NC(=O)c3cc([N+](=O)[O-])n(C)c3)cn2C)cn1C`, for which the GI50 in [2] was more than 100 µM; in assay [3], 44.8 µM; in assay [4] it was more than 100 µM; in assay [5], 39.3 µM; in assay [7] it was more than 100 µM; in assay [8], 84 µM. In addition, the GI50 in [10], in [6] and in assay [9] was more than 100 µM throughout. Moreover, the TGI in assay [2], in assay [3], in assay [4], in assay [5], in [7] and in assay [8] was more than 100 µM each time. The TGI in assay [10], in assay [6] and in [9] was more than 100 µM in each case.
For the compound `COc1cc2c3c(n(CCCN(CCCN(CCCn4c5c(c6ccccc6c4=O)C(=O)c4ccccc4-5)C(=O)OC(C)(C)C)C(=O)OC(C)(C)C)c(=O)c2cc1OC)-c1cc2c(cc1C3=O)OCO2`, the GI50 in [1] was more than 100 µM; in assay [2], 9.85 µM; in assay [4], more than 100 µM; in assay [5], 33.6 µM; in [10], more than 100 µM; in assay [6] it was more than 100 µM. For the same compound, the GI50 in [9] is more than 100 µM. Besides, the TGI in assay [1], in assay [2], in [4], in assay [5], in [10] and in assay [6] was more than 100 µM each time. Besides, in assay [9], the TGI is more than 100 µM.
Consider `O=C([O][Hg][c]1ccccc1)c1ccccc1`, for which the GI50 is 1.36 µM in assay [1]; 1.8 µM in [2]; 0.437 µM in assay [3]; 1.24 µM in assay [4]; 0.382 µM in assay [5]; 1.85 µM in assay [8]. Besides, the GI50 in assay [10] was 1.55 µM; in assay [9], 3.29 µM. For the same compound, the TGI was 6.22 µM in assay [1]; 3.66 µM in [2]; 1.79 µM in assay [3]; 2.56 µM in assay [4]; 2.35 µM in [5]; 7.33 µM in assay [8]. The TGI in assay [10] was found to be 3.1 µM; in assay [9], 14.7 µM.
Consider `N#CCCN(CCC#N)c1ccc(/C=C(/NC(=O)c2cc([N+](=O)[O-])ccc2Cl)C(=O)NN)cc1`, for which the TGI in assay [1], in assay [2], in [3], in [4], in assay [5] and in [8] was more than 100 µM throughout. The compound further yielded a TGI in assay [6] of more than 100 µM.
Consider `COc1cc(-c2cc3ncccc3c3nc(OCCN(C)C)c4cccnc4c23)cc(OC)c1OC`, for which the GI50 in assay [1] was 0.418 µM; in assay [2], 0.468 µM; in assay [3], 0.502 µM; in [4], 0.473 µM; in assay [5], 0.244 µM; in [7], 0.389 µM. Further, the GI50 was 0.671 µM in [10], 0.339 µM in [6] and 0.731 µM in assay [9]. Besides, the TGI is 2.52 µM in assay [1]; 3.14 µM in assay [2]; 23.4 µM in [3]; 2.07 µM in assay [4]; 2.07 µM in assay [5]; 14.8 µM in assay [7]. The TGI in [10] is 3.75 µM; in assay [6], 1.94 µM; in assay [9], more than 100 µM.
Consider `Cc1ccc(C)c2c1C(=O)N(c1ccc(F)cc1F)C2=O`, for which the GI50 in assay [1], in [2], in [3], in assay [4], in [7] and in assay [8] was more than 100 µM throughout. Moreover, the GI50 in [10], in assay [6] and in assay [9] was more than 100 µM in each case. Moreover, the TGI in [1], in assay [2], in assay [3], in assay [4], in assay [7] and in assay [8] was more than 100 µM each time. In addition, the TGI in assay [10], in assay [6] and in assay [9] was more than 100 µM throughout.

These data come from PubChem BioAssay (NCI).
